Data taken from the METLIN SMRT retention time set (Domingo-Almenara et al. 2019).

Test: gradient 5% acetonitrile 3 min, to 50% in 2 min, to 85% in 15 min, held 3 min, 100 µL/min
Details: column: Zorbax Extend-C18 2.1 x 50 mm; eluents: water / acetonitrile, 0.1% formic acid
In short: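 Over 3 months, pure standards in mixtures of ~100 molecules were run by HPLC coupled to a quadrupole time-of-flight mass spectrometer in positive and negative ionization mode. The column was a Zorbax Extend-C18 (2.1 × 50 mm, 1.8 μm) at 100 μL/min, eluted with water and acetonitrile each holding 0.1% formic acid, with 40 μL dead and 900 μL dwell volumes. Retention time was determined from adduct peaks chosen by software and checked manually.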

Row | Structure (SMILES) | RP-LC retention time
1 | Cc1ccc(-c2noc(CN3N=NC4C(=O)N(c5ccc(F)cc5)C(=O)C43)n2)cc1 (stereo not given) | 1020 s
2 | Nc1ccc(CCN2CCN(c3cccc(C(F)(F)F)c3)CC2)cc1 | 633 s
3 | COc1ccc(NC(=O)Cc2csc3nc(-c4cccc(Cl)c4)cn23)cc1OC | 831 s
4 | Cc1nnc2ccc(-c3noc(Cc4cccc(Cl)c4)n3)cn12 | 871 s
5 | CCNCc1cc(C(C)(C)C)c(O)c(C(C)(C)C)c1 | 753 s
6 | Brc1ccc(OCc2nnc3sc(-c4ccccc4)nn23)cc1 | 1050 s
7 | Cc1ccc(N2CCC(NC(=O)Nc3cccc(Cl)c3C)C2=O)cc1 (stereo not given) | 909 s
8 | Cc1noc(C)c1S(=O)(=O)N1CC(c2nc(CCOCc3ccccc3)no2)C1 | 979 s
9 | COc1cc(-c2nc3nc(C)cc(C)n3c2Nc2ccc(Cl)cc2)ccc1O | 656 s
10 | O=C(NCCC1=CCCCC1)C(=O)NCC1(CO)CC1 | 713 s
11 | Cc1ccccc1OCC(=O)Nc1nc(-c2ccccc2Cl)cs1 | 1210 s
12 | CCc1ccc(NC(=O)Nc2ccc(NC(=O)N3CCCC(C(=O)NC)C3)cc2)cc1 (stereo not given) | 730 s
13 | CN(C)C(CNC(=O)NCc1cccs1)c1cn(C)c2ccccc12 (stereo not given) | 586 s
14 | CC1Oc2ccc(-c3csc(NC(=O)C(C)(C)C)n3)cc2NC1=O (stereo not given) | 856 s
15 | COC(=O)c1cc(OCC(=O)Nc2ccc3c(c2)OCCO3)c2cc(Cl)ccc2n1 | 851 s
16 | COc1ccc(C(=O)Nc2nc(-c3ccc4c(c3)N(C)C(=O)C(C)O4)cs2)cc1OC (stereo not given) | 932 s
17 | COc1cccc(-c2ccnc3nc(CCc4ccccc4)nn23)c1 | 970 s
18 | COc1nn(C)cc1C(=O)NCC(=O)NCCOc1ccc(F)cc1 | 626 s
19 | COCc1noc([C@@H]2CC(F)(F)CN2C(=O)C(C)C)n1 | 711 s

Row | Structure (SMILES) | RP-LC retention time
20 | COc1cccc(NC(=O)c2c[nH]c3nc(C)ccc3c2=O)c1 | 791 s
21 | Cc1cc2c(c(=O)n(-c3ccc(F)cc3)c(=O)n2CC(=O)Nc2ccc(Br)cc2)n1C | 932 s
22 | COc1cc([C@H]2Oc3cc([C@H]4Oc5cc(O)cc(O)c5C(=O)[C@@H]4O)ccc3O[C@@H]2CO)ccc1O | 685 s
23 | CCOc1ccc(-c2nc(-c3cccc(-c4ccnn4CC)c3)no2)cc1 | 1300 s
24 | COC(=O)c1cccc(C(=O)Nc2cc(C)ccc2C)n1 | 936 s
25 | CC(CN(CCS(=O)(=O)N1CCNCC1)C(=O)c1ccc(Br)cc1)c1ccccc1 (stereo not given) | 735 s
26 | COc1ccc(S(=O)(=O)c2csc3c2NC(=O)CC3c2ccsc2)cc1 (stereo not given) | 892 s
27 | COc1cccc(-c2nnc(Cc3nc(-c4cccc(OC)c4OC)no3)o2)c1 | 923 s
28 | CNC(=O)CC1CCOC2(CCN(C(=O)C3CC3)CC2)C1 (stereo not given) | 580 s
29 | CCCN1C(=O)COc2ccc(-c3noc(CCc4c[nH]c5ccccc45)n3)cc21 | 1110 s
30 | Cc1ccc(NS(=O)(=O)c2cc3n(c2)CCCNC3=O)cc1 | 651 s
31 | N#Cc1ccsc1NC(=O)c1cccc(Cl)c1 | 861 s
32 | CC(C)n1c(=O)c(Nc2cccc(C(F)(F)F)c2)nc2ccncc21 | 772 s
33 | COc1ccc(-n2ccc(=O)c(-c3nc(-c4ccccc4Br)no3)n2)cc1 | 908 s
34 | CC(C)Cc1nc(N2CCNCC2)c(C#N)c2c1COC(C)(C)C2 | 683 s
35 | COc1ccc(OC)c(-c2csc(NC(=O)c3ccccc3)n2)c1 | 1040 s
36 | COc1ccc(OC)c(NC(=O)c2cc3c(n(-c4ccc(F)cc4)c2=O)CCCC3=O)c1 | 930 s
37 | O=C(Cc1noc2ccccc12)NCC1CCS(=O)(=O)C1 (stereo not given) | 606 s
38 | Cc1c(Cl)cccc1NC(=O)C1CCN(S(=O)(=O)c2ccc3c(c2)NC(=O)CO3)CC1 | 778 s

Continued, values first:

Row | RP-LC retention time | Structure (SMILES)
39 | 743 s | CCCN(CC1CCOC1)C(=O)c1ccc(F)cc1F (stereo not given)
40 | 584 s | O=S(=O)(NCCCCN1CCOC(c2ccccc2)C1)c1ccc(F)cc1F (stereo not given)
41 | 739 s | CCn1c(=O)c(N2CCN(S(=O)(=O)c3ccc(Cl)s3)CC2)nc2ccncc21
42 | 762 s | CCn1cc(CCNC(=O)Nc2ccc(C)c(C)c2)c2cccnc21
43 | 1070 s | COc1cccc(-c2nc(C3CCN(S(=O)(=O)c4ccccc4)CC3)no2)c1
44 | 956 s | Cc1ccc(-n2c(N3CCCC(C(=O)NCc4ccc(Cl)cc4)C3)nc3ccsc3c2=O)cc1 (stereo not given)
45 | 711 s | CCNC(=O)C1CCCN(c2nc3ncn(CC(=O)Nc4ccc(C)c(C)c4)c(=O)c3s2)C1 (stereo not given)
46 | 802 s | CCn1c(=O)c(C(=O)NCc2cc(F)ccc2F)nc2cccnc21
47 | 842 s | Cc1cccc(NC(=O)Cn2nc(C(=O)N3CCCC3)c3ccccc32)c1
48 | 631 s | CCCCNC(=O)C1CCN(c2cc(N3CCSCC3)ncn2)CC1
49 | 913 s | CCC(=O)N1c2ccccc2CC1c1nc(C(C)C)no1 (stereo not given)
50 | 885 s | Cc1oc(C2CCN(C(=O)Nc3ccc(Cl)cc3F)CC2)nc1C(=O)N1CCCCC1
51 | 1040 s | Cc1nc(-c2csc(S(=O)(=O)N3CCCC(C(=O)Nc4cccc(Cl)c4)C3)c2)no1 (stereo not given)
52 | 605 s | O=C(NCc1ccc2c(c1)OCO2)c1ccc2ncnc(N3CCOCC3)c2c1
53 | 520 s | Cc1cc2c(N3CCN(CCO)CC3)ncnc2s1
54 | 643 s | CCC1CN(C(=O)N2CCC(C(=O)NCCCN3CCCCC3)CC2)c2ccccc2O1 (stereo not given)
55 | 953 s | Cc1cc(=O)n(CC(=O)Nc2ccc(Br)cc2F)c(N2CCc3ccccc3C2)n1
56 | 710 s | Cc1noc2nc(C)n(CC(=O)NCc3ccccc3F)c(=O)c12
57 | 614 s | CN1CCCc2cc(CCNC(=O)c3c(F)cccc3F)ccc21
58 | 641 s | Cc1ccc(-n2cc(C(=O)N3CCC(C(N)=O)CC3)nn2)cc1
59 | 1180 s | Cc1sc(-c2cc(C(F)(F)F)[nH]n2)cc1S(=O)(=O)N1CCN(c2ccc(Cl)cc2)CC1
60 | 870 s | CC1=C(c2ccc(Cl)cc2)S(=O)(=O)N=C1N1CCC(C(=O)NCCc2ccco2)CC1
61 | 662 s | O=C1CN(c2ncnc3[nH]ncc23)CC(=O)N1CCc1ccccc1
62 | 645 s | Cc1cccc(OCCc2noc(C3CCCN3)n2)c1 (stereo not given)
63 | 588 s | CN(C)CCNC(=O)c1ccc(Cn2nc(N3CCN(c4ccc(F)cc4)CC3)ccc2=O)o1
64 | 595 s | COc1ccc(NC(=O)Cn2nc3n(c2=O)CCCC3)cc1OC

Row | RP-LC retention time | Structure (SMILES)
65 | 817 s | Cc1ccc(-n2nc(N3CCN(C(=O)c4ccc(Br)o4)CC3)ccc2=O)cc1
66 | 633 s | COc1cc(OC)c(NC(=O)C2CCCN(C(=O)c3cc(-c4ccncc4)n[nH]3)C2)cc1Cl (stereo not given)
67 | 595 s | Cc1cc(N2CCN(C(=O)c3ccc4c(c3)OCO4)CC2)nc2nnc(C)n12
68 | 865 s | Cc1cccc(S(=O)(=O)N2CCCN(c3ccc(=O)n(-c4ccc(F)cc4)n3)CC2)c1
69 | 749 s | O=C(NCc1cccc(Cl)c1)C1CCCN(c2cnc3nccnc3c2)C1 (stereo not given)
70 | 706 s | COc1ccc(CN2CC(C(=O)NC3(c4nc(C)no4)CCCCC3)CC2=O)cc1 (stereo not given)
71 | 896 s | Cc1ccccc1NC(=O)CN1C(=O)CCc2cc(S(=O)(=O)N3CCCCC3C)ccc21 (stereo not given)
72 | 609 s | COCC1CN(Cc2cn[nH]c2-c2ccccc2)CCC1(F)F (stereo not given)
73 | 810 s | COc1cccc(C(=O)NCCCS(=O)(=O)N2CCN(c3ccccc3)CC2)c1OC
74 | 993 s | CC(C)c1ccc(NC(=O)C2CCN(S(=O)(=O)c3ccc4c(c3)sc(=O)n4C)CC2)cc1
75 | 886 s | Cc1ccc(-c2nnc(N3CCC(C(=O)NC(C)c4ccccc4)CC3)o2)cc1 (stereo not given)
76 | 597 s | Cc1ccc(NC(=O)NCC2(N3CCOCC3)CCOC2)c(C)c1 (stereo not given)
77 | 618 s | N#Cc1cccc(CN2CCCCC2c2nncn2CC2CC2)c1 (stereo not given)
78 | 825 s | COc1cccc(NC(=O)Cn2c(=O)c(CCC(=O)NC3CCCC3)nc3ccccc32)c1
79 | 606 s | CCN1CCN(c2ccc(-c3ccc(OC)c(S(=O)(=O)N4CCCC4)c3)nn2)CC1
80 | 558 s | Cc1nnc2n1CCN(C(=O)c1n[nH]c3ccccc13)C2
81 | 764 s | O=C(c1ccc2c(c1)OCO2)N1CCC(n2nc(-c3ccsc3)ccc2=O)CC1
82 | 889 s | Cc1cc(N(C)C)n2ncc(-c3ccc(Cl)cc3)c2n1
83 | 662 s | Cc1cc(Nc2ccc(NC(=O)Nc3ccccc3)cc2)nc(N2CCOCC2)n1
84 | 711 s | Cc1ccccc1CN1CCCN(c2ncccc2-c2nc(C3CC3)no2)CC1
85 | 645 s | COc1ccc(NC(=O)C2CCN(c3cc(N4CCCCC4)ncn3)CC2)cc1OC
86 | 763 s | O=C(NCc1nnnn1C1CCCCC1)c1c(F)cccc1Cl
87 | 571 s | CCN(CC)c1cc(C)nc2nc(CN3CCN(c4ccc(OC)cc4)CC3)nn12
88 | 688 s | COCc1nc(C2CCN(C(=O)C3CCCC3)C2)no1 (stereo not given)
89 | 795 s | O=C(Nc1ccc2c(c1)OCCO2)c1cn(-c2cc(N3CCCC3)ncn2)cn1
90 | 722 s | Cc1ccc(C)c(CNC(=O)c2ccc(-c3cccnc3)nc2)c1
